The experiment has as its target T1, LIMK2 (Homo sapiens, UniProt P53671).
T1 construct: purchased Thermo Fisher Scientific (Life Technologies) SelectScreen
The experiment in a line: SelectScreen LanthaScreen. The settings on record: read-out: % displacement. It counts as binding. In short, it runs like this: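 Percent values come from Thermo SelectScreen profiling of NU5455, combining activity and binding assays. CSF1R was run in Z'LYTE format at Km app ATP, and CAMK1 in Adapta format with ATP listed at 10.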

T1 sequence (P53671 whole entry): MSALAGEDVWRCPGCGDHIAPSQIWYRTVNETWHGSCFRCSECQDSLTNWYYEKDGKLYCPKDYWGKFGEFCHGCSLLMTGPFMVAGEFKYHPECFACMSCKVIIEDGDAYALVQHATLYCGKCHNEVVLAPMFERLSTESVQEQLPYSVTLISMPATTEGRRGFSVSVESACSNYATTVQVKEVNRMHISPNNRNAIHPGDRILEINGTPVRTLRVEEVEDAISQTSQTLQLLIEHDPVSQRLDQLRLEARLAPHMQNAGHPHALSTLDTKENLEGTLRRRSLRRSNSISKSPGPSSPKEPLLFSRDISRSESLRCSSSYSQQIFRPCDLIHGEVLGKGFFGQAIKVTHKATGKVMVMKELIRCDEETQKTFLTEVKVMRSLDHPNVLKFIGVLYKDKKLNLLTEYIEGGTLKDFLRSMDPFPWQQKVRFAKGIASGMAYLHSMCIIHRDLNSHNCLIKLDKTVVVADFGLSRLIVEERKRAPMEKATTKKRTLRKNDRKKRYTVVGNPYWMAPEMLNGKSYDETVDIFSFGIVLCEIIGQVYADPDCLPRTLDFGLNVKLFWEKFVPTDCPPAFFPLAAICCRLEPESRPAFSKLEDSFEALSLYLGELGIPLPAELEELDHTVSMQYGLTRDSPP

Regarding `CN(C(=O)CN1CCOCC1)c1ccc2sc3c(-c4cccc5c(=O)cc(N6CC7CCC(C6)O7)oc45)cccc3c2c1` [NU5455], the inhibition at 1 µM amounted to 1.4%.
